The NOAEL is the highest dose or exposure tested at which no adverse effect was seen.

The test system of one data set is Apis mellifera. Conditions: acute; duration: 48 hours; oral; unspecified; mortality.
The next data set deals with Tagia sp. Conditions: acute; duration: 14 days; mortality.
The next data set has as its system Daphnia magna. The note with it: chronic/long-term; duration: 21 days; reproduction.
A further data set deals with Bibionidae. Conditions: chronic/long-term; duration: 28 days; other.
The next data set has as its system Lepomis macrochirus. The note with it: acute; duration: 96 hours; mortality.
The subject of the next data set is Oncorhynchus mykiss. Conditions: chronic/long-term; duration: 95 days.
The next data set concerns Colinus virginianus. Conditions: acute, oral, mortality.
In a further data set the test system is Avena sativa. The note with it: not reported; no effects.
The test system of a further data set is Canidae. Conditions: chronic; duration: 52 weeks; oral; Dog Other; organ weight.

Consider `CC(COc1ccc(Oc2ccccc2)cc1)Oc1ccccn1` (centres undefined) [Pyriproxyfen], for which the LD50 was greater than 74 µg/piece with Apis mellifera; greater than 1910 mg/kg in the data set with Anas platyrhynchos (acute, oral, unspecified, mortality); greater than 5000 mg/kg with Rattus norvegicus (acute, oral, mortality); greater than 1910 mg/kg in the data set with Colinus virginianus. Further, the LC50 was greater than 1000 mg/kg in the data set with Tagia sp., greater than 0.27 mg/L in the data set with Lepomis macrochirus and greater than 863 mg/kg-day with Colinus virginianus (diet). For the same compound, the NOEC with Daphnia magna worked out at 1.5e-05 mg/L; in the data set on Bibionidae, 0.01 mg/L; in the data set on Anas platyrhynchos (reproductive), 70.2 mg/kg-day; with Oncorhynchus mykiss it was 0.0043 mg/L. Further, the NOAEL with Rattus norvegicus (reproduction developmental, organ weight) was determined as 13.3 mg/kg-day; with Canidae, 10 mg/kg-day. In addition, the LEL in the data set on Avena sativa worked out at 8000 g/ha.

These data come from EPA's ToxValDB 9.5 (doi:10.2903/j.efsa.2009.336r).
